The subject of data set [1] is Trichophyton mentagrophytes. As to the kind of experiment: minimum inhibitory concentration, gradient plate method, Trichophyton mentagrophytes. Format: cell-based. Conditions: 72 h, gradient 0-100 μg/ml, 10% aqueous dimethyl formamide, evaluated three days after inoculation, read-out: Minimum Inhibitory Concentration, Fungi, Tri. From the text:
(§1) Test evaluation was made three days after inoculation.

For another data set, the system named is Aspergillus niger. The experiment in a line: minimum inhibitory concentration, gradient plate method, Aspergillus niger. The class given is cell-based. On the set-up: key to partial resistancy, Fungi, Asp: partial resistancy observed. Conditions: for MIC: 72 h, gradient 0-100 μg/ml, 10% aqueous dimethyl formamide, evaluated three days after inoculation, read-out: Minimum Inhibitory Concentration, Fungi, Asp.
Text: as §1

Another data set in a line: in vivo. Conditions: mouse, po.
The next data set concerns Streptococcus faecalis. The experiment in a line: minimum inhibitory concentration, gradient plate method, Streptococcus faecalis. Format: cell-based. Conditions: Enterococcus faecalis, 72 h, gradient 0-100 μg/ml, 10% aqueous dimethyl formamide, evaluated three days after inoculation, read-out: Minimum Inhibitory Concentration, Bacteria, Str.
Text: as §1

Data set [2] relates to Staphylococcus aureus haemolyticus. As to the kind of experiment: minimum inhibitory concentration, gradient plate method, Staphylococcus aureus haemolyticus. The class given is cell-based. More on the design: key to partial resistancy, Bacteria, St: partial resistancy observed. As to conditions: for MIC: 72 h, gradient 0-100 μg/ml, 10% aqueous dimethyl formamide, evaluated three days after inoculation, read-out: Minimum Inhibitory Concentration, Bacteria, St.
Text: as §1

Text for in vivo: The results of these tests are summarized in the following Table I together with the oral toxicity values (LD50 per os; mice, values in mg per kg of body weight) determined in the conventional manner.

What is called LD50 is the dose expected to kill half of the subjects tested. On to `COCOC(Cn1ccnc1)c1ccc(Cl)cc1Cl` (stereo not drawn) [Example 1, 1-β-(methoxy-methoxy-2,4-dichlorophenethyl)-imidazole nitrate], for which the MIC (in data set [1]; in the data set with Aspergillus niger) was less than 10 µg/mL throughout. For the same molecule, in “in vivo”, the LD50 amounted to 540 mg/kg.
Take `Clc1ccc(C(Cn2ccnc2)OCOc2ccccc2)c(Cl)c1` (stereo not drawn) [Example 2, 1-β-(phenoxymethoxy-2,4-dichlorophenethyl)-imidazole nitrate]: the MIC in data set [1] is less than 10 µg/mL; in the data set on Aspergillus niger, less than 10 µg/mL; with Streptococcus faecalis, 25 µg/mL; in data set [2], 10 µg/mL. In the data set “in vivo”, this molecule came in with an LD50 of more than 3000 mg/kg.
As to `Clc1ccc(C(Cn2ccnc2)OCOc2ccccc2Cl)c(Cl)c1` (stereo not drawn) [Example 3, 1-β-(2-chlorophenoxymethoxy-2,4-dichlorophenethyl)-imidazole nitrate], the MIC in data set [1] was less than 10 µg/mL; with Aspergillus niger it was less than 10 µg/mL; in the data set with Streptococcus faecalis it was 15 µg/mL; in data set [2], less than 10 µg/mL. In “in vivo”, this molecule returned an LD50 of more than 3000 mg/kg.
On to `Clc1ccc(OCOC(Cn2ccnc2)c2ccc(Cl)cc2Cl)cc1` (stereo not drawn) [Example 4, 1-β-(4-chlorophenoxymethoxy-2,4-dichlorophenethyl)-imidazole nitrate], for which the MIC (in data set [1]; in the data set on Aspergillus niger; in the data set on Streptococcus faecalis; in data set [2]) was less than 10 µg/mL throughout. The same molecule returned an LD50 in “in vivo” of approximately 2750 mg/kg.
As for `Clc1ccc(OCOC(Cn2ccnc2)c2ccc(Cl)cc2Cl)c(Cl)c1` (stereo not drawn) [Example 5, 1-β-(2,4-dichlorophenoxymethoxy-2,4-dichlorophenethyl)-imidazole nitrate], the MIC (in data set [1]; with Aspergillus niger; in the data set on Streptococcus faecalis; in data set [2]) was less than 10 µg/mL each time. Also, in “in vivo”, the LD50 was more than 3000 mg/kg.
Take `Cc1ccc(OCOC(Cn2ccnc2)c2ccc(Cl)cc2Cl)cc1` (stereo not drawn) [Example 6, 1-β-(4-methylphenoxymethoxy-2,4-dichlorophenethyl)-imidazole nitrate]: the MIC in data set [1] was less than 10 µg/mL; with Aspergillus niger, less than 10 µg/mL; in the data set with Streptococcus faecalis, 15 µg/mL; in data set [2], less than 10 µg/mL. In addition, the LD50 in the data set “in vivo” is more than 3000 mg/kg.
In the case of `COc1ccc(OCOC(Cn2ccnc2)c2ccc(Cl)cc2Cl)cc1` (stereo not drawn) [Example 7, 1-β-(4-methoxyphenoxymethoxy-2,4-dichlorophenethyl)-imidazole nitrate], the MIC in data set [1] is less than 10 µg/mL; in the data set on Aspergillus niger, less than 10 µg/mL; with Streptococcus faecalis, 30 µg/mL; in data set [2], 10 µg/mL. The molecule further registered an LD50 in the data set “in vivo” of 2600 mg/kg.
For the molecule `CSc1ccc(OCOC(Cn2ccnc2)c2ccc(Cl)cc2Cl)cc1` (stereo not drawn) [Example 8, 1-β-(4-methylthiophenoxymethoxy-2,4-dichlorophenethyl)-imidazole nitrate], the values for the MIC (in data set [1]; with Aspergillus niger; in data set [2]) were less than 10 µg/mL, less than 10 µg/mL and 10 µg/mL, respectively. Besides, the LD50 in the data set “in vivo” is approximately 2100 mg/kg.
On to `Clc1ccc(C(Cn2ccnc2)OCOc2ccc(-c3ccccc3)cc2)c(Cl)c1` (stereo not drawn) [Example 9, 1-β-(phenylphenoxymethoxy-2,4-dichlorophenethyl)-imidazole nitrate], for which the LD50 in the data set “in vivo” was approximately 3500 mg/kg.
In the case of `CSCOC(Cn1ccnc1)c1ccc(Cl)cc1Cl` (stereo not drawn) [Example 10, 1-β-(methylthiomethoxy-2,4-dichlorophenethyl)-imidazole nitrate], the MIC in data set [1] is less than 10 µg/mL; in the data set with Aspergillus niger, less than 10 µg/mL; in the data set with Streptococcus faecalis, 30 µg/mL; in data set [2] it was 20 µg/mL. The same molecule displayed an LD50 in “in vivo” of approximately 950 mg/kg.
Turning to `Clc1ccc(C(Cn2ccnc2)OCSc2ccccc2)c(Cl)c1` (stereo not drawn) [Example 11, 1-β-(phenylthiomethoxy-2,4-dichlorophenethyl)-imidazole nitrate], the MIC is less than 10 µg/mL in data set [1], less than 10 µg/mL with Aspergillus niger, 20 µg/mL in the data set with Streptococcus faecalis and less than 10 µg/mL in data set [2]. The molecule further yielded an LD50 in the data set “in vivo” of more than 3000 mg/kg.
Regarding `Clc1ccc(C(Cn2ccnc2)OCSc2ccc(Br)cc2)c(Cl)c1` (stereo not drawn) [Example 12, 1-β-(4-bromophenylthiomethoxy-2,4-dichlorophenethyl)-imidazole nitrate], the MIC in data set [1] is less than 10 µg/mL; with Aspergillus niger, less than 10 µg/mL; in the data set with Streptococcus faecalis, 10 µg/mL; in data set [2] it was less than 10 µg/mL. Besides, the LD50 in the data set “in vivo” stood at 12500 mg/kg.
Take `Clc1ccc(SCOC(Cn2ccnc2)c2ccc(Cl)cc2Cl)cc1` (stereo not drawn) [Example 13, 1-β-(4-chlorophenylthiomethoxy-2,4-dichlorophenethyl)-imidazole nitrate]: the MIC in data set [1] was less than 10 µg/mL; in the data set with Aspergillus niger, less than 10 µg/mL; in the data set on Streptococcus faecalis it was 10 µg/mL; in data set [2], 10 µg/mL. The LD50 in “in vivo” stood at 3850 mg/kg.
As for `Cc1ccc(SCOC(Cn2ccnc2)c2ccc(Cl)cc2Cl)cc1` (stereo not drawn) [Example 14, 1-β-(4-methylphenylthiomethoxy-2,4-dichlorophenethyl)-imidazole nitrate], the MIC (in data set [1]; in the data set on Aspergillus niger; with Streptococcus faecalis; in data set [2]) was less than 10 µg/mL each time. The same molecule returned an LD50 in “in vivo” of more than 3000 mg/kg.
For `Clc1ccc(C(Cn2ccnc2)OCSc2ccc(Cl)c(Cl)c2)c(Cl)c1` (stereo not drawn) [Example 15, 1-β-(3,4-dichlorophenylthiomethoxy-2,4-dichlorophenethyl)-imidazole nitrate], the MIC (in data set [1]; in the data set on Streptococcus faecalis; in data set [2]) was less than 10 µg/mL in each case. The “partial resistancy, Fungi, Asp” value in the data set on Aspergillus niger was “r”. Also, in “in vivo”, the LD50 was approximately 7500 mg/kg.
For the molecule `Cc1cc(SCOC(Cn2ccnc2)c2ccc(Cl)cc2Cl)ccc1Br` (stereo not drawn) [Example 16, 1-β-(4-bromo-3-methylphenylthiomethoxy-2,4-dichlorophenethyl)-imidazole nitrate], the MIC in data set [1] was less than 10 µg/mL; with Aspergillus niger, less than 10 µg/mL; in the data set with Streptococcus faecalis, 10 µg/mL; in data set [2] it was less than 10 µg/mL. The LD50 in the data set “in vivo” is more than 3000 mg/kg.
On to `Clc1ccc(OCCOCCOC(Cn2ccnc2)c2ccc(Cl)cc2Cl)cc1` (stereo not drawn) [Example 17, 1-{β-[2-(p-chlorophenoxyethoxy)-ethoxy-2,4-dichlorophenethyl]}-imidazole nitrate], for which the MIC in data set [1] was less than 10 µg/mL; in the data set with Aspergillus niger it was 10 µg/mL; in the data set with Streptococcus faecalis, 10 µg/mL; in data set [2], less than 10 µg/mL. Moreover, the LD50 in “in vivo” is 2500 mg/kg.
As for `OCCSC(Cn1ccnc1)c1ccc(Cl)cc1Cl` (stereo not drawn) [Example 18, 1-β-(2,4-dichlorophenethyl-β'-hydroxyethylthio)-imidazole nitrate], the results for the MIC (in data set [1]; in the data set on Streptococcus faecalis; in data set [2]) were 30 µg/mL, 40 µg/mL and 50 µg/mL, respectively. The molecule also returned an LD50 in “in vivo” of 1300 mg/kg.
Consider `CSCOC(Cn1ccnc1)c1ccc(Cc2ccc(Cl)cc2)cc1` (stereo not drawn) [Example 19, 1-[β-methylthiomethoxy-4-(4'-chlorobenzyl)-phenethyl]-imidazole nitrate], for which the MIC is less than 10 µg/mL in data set [1], 10 µg/mL in the data set on Aspergillus niger, 25 µg/mL with Streptococcus faecalis and 10 µg/mL in data set [2]. Moreover, the LD50 in “in vivo” came to 970 mg/kg.
Turning to `Clc1ccc(C(Cn2ccnc2)OCCCOc2ccccc2)c(Cl)c1` (stereo not drawn) [Example 20, 1-β-(3-phenoxypropyloxy-2,4-dichlorophenethyl)-imidazole methane sulfonate], the MIC (in data set [1]; with Aspergillus niger; in the data set on Streptococcus faecalis; in data set [2]) was less than 10 µg/mL in each case. This molecule showed an LD50 in the data set “in vivo” of approximately 2400 mg/kg.
`Clc1ccc(SCCSC(Cn2ccnc2)c2ccc(Cl)cc2Cl)cc1` (stereo not drawn) [Example 21, 1-β-(4-chlorophenylthioethylthio-2,4-dichlorophenethyl)-imidazole]: the MIC (in data set [1]; in the data set on Aspergillus niger; in data set [2]) was less than 10 µg/mL throughout. In addition, in “in vivo”, the LD50 is more than 3000 mg/kg.
Take `Clc1ccc(C(Cn2ccnc2)OCSC2CCCCC2)c(Cl)c1` (stereo not drawn) [Example 22, 1-[β-(cyclohexylthiomethoxy-2,4-dichlorophenethyl)]-imidazole nitrate]: the MIC (in data set [1]; in the data set on Aspergillus niger; in the data set on Streptococcus faecalis; in data set [2]) was less than 10 µg/mL each time. Moreover, the LD50 in the data set “in vivo” was more than 3000 mg/kg.
For `Clc1ccc(CSCOC(Cn2ccnc2)c2ccc(Cl)cc2Cl)cc1` (stereo not drawn) [Example 23, 1-β-(p-chlorobenzylthiomethoxy-2,4-dichlorophenethyl)-imidazole nitrate], the MIC (in data set [1]; with Aspergillus niger; in data set [2]) was less than 10 µg/mL in each case. Moreover, in “in vivo”, the LD50 was more than 2000 mg/kg.
For the molecule `COc1ccccc1OCOC(Cn1ccnc1)c1ccc(Cl)cc1Cl` (stereo not drawn) [Example 24, 1-β-(2-methoxyphenoxymethyloxy-2,4-dichlorophenethyl)-imidazole nitrate], the MIC (in data set [1]; in the data set on Aspergillus niger) was less than 10 µg/mL in each case. Also, the LD50 in “in vivo” was approximately 1350 mg/kg. Further, in data set [2], the “partial resistancy, Bacteria, St” value is “r”.
On to `CC(C(OCSc1ccc(Cl)cc1)c1ccc(Cl)cc1Cl)n1ccnc1` (stereo not drawn) [Example 25, 1-[β-(p-chlorophenylthiomethoxy)-2,4-dichlorophenethyl-α-methyl]-imidazole nitrate], for which the MIC (in data set [1]; in the data set on Streptococcus faecalis; in data set [2]) was less than 10 µg/mL in each case. Also, in the data set on Aspergillus niger, the “partial resistancy, Fungi, Asp” value was “r”. Further, in the data set “in vivo”, the LD50 is more than 10000 mg/kg.
Regarding `Clc1ccc(SCCSC(Cn2ccnc2)c2ccc(Cl)cc2Cl)nc1` (stereo not drawn) [Example 29, 1-{β-[(5'-chloropyridyl-2'-thio-2-ethylthio)-2,4-dichlorophenethyl]}-imidazole], the MIC (in data set [1]; in the data set with Aspergillus niger; in data set [2]) was less than 10 µg/mL each time. The molecule also displayed an LD50 in the data set “in vivo” of more than 2000 mg/kg.

(Values after patent US4177350A, “Imidazole ethyl oxyalkoxy derivatives and thio analogues thereof” (Siegfried Aktiengesellschaft, priority 1977, dated 1979).)
